Series [1] addresses 5-hydroxytryptamine receptor 2A (Homo sapiens, UniProt P28223). As to the kind of experiment: Binding affinity to 5HT2A receptor (unknown origin).
In series [2] the target is T1, Alpha-1A adrenergic receptor (Homo sapiens, UniProt P35348).
T1 sequence (P35348 whole entry): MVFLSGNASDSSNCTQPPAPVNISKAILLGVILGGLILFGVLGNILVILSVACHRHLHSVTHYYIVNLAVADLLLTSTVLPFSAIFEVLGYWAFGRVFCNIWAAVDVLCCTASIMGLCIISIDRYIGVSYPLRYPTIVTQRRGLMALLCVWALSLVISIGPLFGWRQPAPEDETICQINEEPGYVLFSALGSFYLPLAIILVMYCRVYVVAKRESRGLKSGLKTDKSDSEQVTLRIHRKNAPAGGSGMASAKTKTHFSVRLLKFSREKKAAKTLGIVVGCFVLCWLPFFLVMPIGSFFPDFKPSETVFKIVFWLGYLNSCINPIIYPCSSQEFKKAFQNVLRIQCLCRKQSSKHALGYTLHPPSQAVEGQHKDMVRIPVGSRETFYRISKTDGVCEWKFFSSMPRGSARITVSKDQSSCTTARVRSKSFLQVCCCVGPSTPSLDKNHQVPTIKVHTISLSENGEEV
The experiment in a line: Binding affinity to alpha-1A adrenergic receptor (unknown origin). Particulars: read-out: pA2 (converted).

The next series has as its target D(2) dopamine receptor (Homo sapiens, UniProt P14416).
For series [3], the species on record is Mus musculus. As to the kind of experiment: animal or person. As to conditions: po.
For series [4], the system named is Mus musculus. The experiment in a line: Toxicity in mouse assessed as weight gain at 0.06 to […], po for 28 days. The format is organism-based. Set-up: dose 0.06-0.16 mg/kg, route oral. As to conditions: in vivo, 672 h.
The species named for series [5] is Mus musculus. As to the kind of experiment: animal or person. As to conditions: po. This is another data set of the same source.
Description: Antipsychotic activity in po dosed mouse assessed as reduction in apomorphine-induced climbing behavior administered for 30 mins prior to apomorphine-challenge measured at 10 to 30 mins post-dose
Series [6] has as its system Rattus norvegicus. As to the kind of experiment: Toxicity in rat assessed as QT interval prolongation at 30 mg/kg, po by electrophysiology assay. The format is organism-based. Set-up: dose 30 mg/kg, route oral. As to conditions: in vivo.
The subject of series [7] is Rattus norvegicus. The experiment in a line: Antipsychotic activity in po dosed rat assessed as reduction in conditioned avoidance response after 60 mins. The format is functional. As to conditions: 1 h.
The next series addresses D(3) dopamine receptor (Homo sapiens, UniProt P35462). The experiment in a line: Binding affinity to dopamine D3 receptor (unknown origin).
Series [8] addresses T2, 5-hydroxytryptamine receptor 1A (Homo sapiens, UniProt P08908).
T2 sequence (P08908 whole entry): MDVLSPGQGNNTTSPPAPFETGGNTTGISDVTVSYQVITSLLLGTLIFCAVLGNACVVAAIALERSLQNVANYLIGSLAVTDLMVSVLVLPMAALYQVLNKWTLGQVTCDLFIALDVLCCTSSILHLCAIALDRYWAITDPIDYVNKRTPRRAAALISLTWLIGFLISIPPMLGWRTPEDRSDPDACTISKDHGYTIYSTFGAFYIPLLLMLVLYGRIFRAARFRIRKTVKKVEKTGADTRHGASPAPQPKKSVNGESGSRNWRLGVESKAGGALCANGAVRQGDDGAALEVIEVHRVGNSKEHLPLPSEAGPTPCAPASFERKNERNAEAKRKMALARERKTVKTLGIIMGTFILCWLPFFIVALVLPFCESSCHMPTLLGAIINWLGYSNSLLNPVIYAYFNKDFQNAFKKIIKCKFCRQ
As to the kind of experiment: Binding affinity to 5HT1A receptor (unknown origin).

pKi: −log10 of the molar value.

D(2) dopamine receptor, sequence (P14416 whole entry): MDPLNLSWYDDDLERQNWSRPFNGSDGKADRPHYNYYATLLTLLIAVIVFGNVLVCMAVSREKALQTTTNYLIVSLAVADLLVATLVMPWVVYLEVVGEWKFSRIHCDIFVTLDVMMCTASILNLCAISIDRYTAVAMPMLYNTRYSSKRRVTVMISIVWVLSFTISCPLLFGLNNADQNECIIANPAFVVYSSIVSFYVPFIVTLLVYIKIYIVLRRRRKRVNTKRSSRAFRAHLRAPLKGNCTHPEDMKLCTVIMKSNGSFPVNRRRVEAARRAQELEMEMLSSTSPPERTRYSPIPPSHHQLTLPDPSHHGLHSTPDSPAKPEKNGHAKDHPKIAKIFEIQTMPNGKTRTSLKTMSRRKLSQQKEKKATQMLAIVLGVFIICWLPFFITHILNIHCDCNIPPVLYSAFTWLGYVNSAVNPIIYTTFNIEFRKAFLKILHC
5-hydroxytryptamine receptor 2A, sequence (P28223 whole entry): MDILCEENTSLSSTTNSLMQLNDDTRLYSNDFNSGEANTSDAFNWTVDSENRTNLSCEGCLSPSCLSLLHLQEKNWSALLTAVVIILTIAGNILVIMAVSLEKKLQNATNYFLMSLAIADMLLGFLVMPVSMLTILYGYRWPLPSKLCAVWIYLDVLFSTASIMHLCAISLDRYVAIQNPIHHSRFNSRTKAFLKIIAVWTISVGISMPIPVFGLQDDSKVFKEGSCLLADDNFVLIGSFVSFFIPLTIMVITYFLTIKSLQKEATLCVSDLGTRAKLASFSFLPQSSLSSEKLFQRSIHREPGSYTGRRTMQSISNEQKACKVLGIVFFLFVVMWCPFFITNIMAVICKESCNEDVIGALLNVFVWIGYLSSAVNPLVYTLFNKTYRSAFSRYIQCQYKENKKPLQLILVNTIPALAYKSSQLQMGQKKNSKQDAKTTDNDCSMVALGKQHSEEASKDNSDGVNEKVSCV
D(3) dopamine receptor, sequence (P35462 whole entry): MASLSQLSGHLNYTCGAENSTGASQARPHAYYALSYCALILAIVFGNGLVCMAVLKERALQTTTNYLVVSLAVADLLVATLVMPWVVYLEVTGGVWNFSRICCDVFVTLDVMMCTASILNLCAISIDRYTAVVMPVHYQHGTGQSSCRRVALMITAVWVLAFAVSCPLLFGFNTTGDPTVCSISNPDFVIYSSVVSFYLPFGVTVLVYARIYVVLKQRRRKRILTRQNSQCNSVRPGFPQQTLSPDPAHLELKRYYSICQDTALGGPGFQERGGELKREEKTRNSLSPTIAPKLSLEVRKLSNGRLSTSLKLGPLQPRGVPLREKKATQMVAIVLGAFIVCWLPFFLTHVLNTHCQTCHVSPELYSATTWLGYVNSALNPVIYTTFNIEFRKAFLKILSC

`COc1ccccc1N1CCN(CCCOc2ccc3c(C)cc(=O)oc3c2)CC1`: the figures for the pKi (in series [1]; on D(2) dopamine receptor) were 6.76 and 7.93, respectively. Moreover, in [2], the Kb was 0.851 nM.

On to `Cc1nc2n(c(=O)c1CCN1CCC(c3noc4cc(F)ccc34)CC1)CCCC2` [RISPERIDONE], for which the ED50 in the series listed under Mus musculus [3] turned out to be 0.01 mg/kg; in the series listed under Mus musculus [5], 0.02 mg/kg; in the series on Rattus norvegicus [7], 0.48 mg/kg. Also, the Activity result in the series on Mus musculus [4] and in the series on Rattus norvegicus [6] was “Toxic” throughout.

As to `Cc1cc(=O)oc2cc(OCCCN3CCN(c4ccccc4)CC3)ccc12`, the results for the pKi (on D(3) dopamine receptor; in series [8]; at D(2) dopamine receptor) were 7.72, 9.10 and 7.97, respectively.

Broadly, the pKi is the negative decadic logarithm of the Ki, by convention in mol/L. Low values mean a high Ki, high ones a low Ki. By ED50 is commonly meant the dose that gives a 50% effect, or the effect in half of the subjects.

Source of the values: ChEMBL document CHEMBL2385071, “Synthesis and biological investigation of coumarin piperazine (piperidine) derivatives as potential multireceptor atypical antipsychotics” (J Med Chem, 2013).
